The values that follow come from ChEMBL document CHEMBL2086378, “Eudesmane-type sesquiterpenoid and guaianolides from Kandelia candel in a screening program for compounds to overcome TRAIL resistance” (2012).

Structures are written as SMILES.

Type in all cases: functional
The subject of assay [1] is AGS. The assay can be described thus: Cytotoxicity against TRAIL-resistant human AGS cells assessed as inhibition of cell viability at 80 uM after 24 hrs by fluorescence assay in presence of 100 ng/ml TRAIL relative to in absence of TRAIL.
Assay [2] has as its system AGS. The assay can be described thus: Cytotoxicity against TRAIL-resistant human AGS cells assessed as inhibition of cell viability at 50 uM after 24 hrs by fluorescence assay in presence of 100 ng/ml TRAIL relative to in absence of TRAIL.
Assay [3] relates to AGS. The experiment in a line: Cytotoxicity against TRAIL-resistant human AGS cells assessed as inhibition of cell viability at 17.5 uM after 24 hrs by fluorescence assay in presence of 100 ng/ml TRAIL relative to in absence of TRAIL.
The test system of assay [4] is AGS. The experiment in a line: Cytotoxicity against TRAIL-resistant human AGS cells assessed as inhibition of cell viability at 10 uM after 24 hrs by fluorescence assay in presence of 100 ng/ml TRAIL relative to in absence of TRAIL.

Regarding `C=C(C(=O)OC)[C@@H]1CC[C@@]2(C)C=CC(=O)C(C)=C2C1`, the “inhibition (INH)” value in the assay with AGS [1] was 29%.
On to `CC(=O)O[C@H]1CC(C)=C2C(=O)C=C(C)[C@@H]2[C@H]2OC(=O)[C@@H](C)[C@@H]21`, for which the “inhibition (INH)” value in the assay with AGS [2] amounted to 23%.
With `O=c1cc(-c2ccc(O)c(O)c2)oc2cc(O)cc(O)c12` [LUTEOLIN], the “inhibition (INH)” value in the assay on AGS [3] was determined as 48%.
With `C/C=C(\C)C(=O)O[C@H]1CC(C)=C2C(=O)C=C(C)[C@@H]2[C@H]2OC(=O)[C@@H](C)[C@@H]21` [MEHIRUGIN B], the “inhibition (INH)” value in the assay on AGS [4] was found to be 27%.
